One assay has as its target T1, B-Raf kinase (Homo sapiens, UniProt P15056).
T1 construct: purchased Upstate Biotechnology
As to the kind of experiment: B-Raf kinase assay ([33P] incorporation into MEK1(K97R)). As to conditions: class symbols; 8 μM ATP; read-out: IC50 against B-Raf kinase. Format: biochemical. The gist of the method:
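Recombinant B-Raf (5 ng) phosphorylating 500 ng MEK1(K97R) with 8 μM ATP plus [33P]ATP, pH 7.5 Tris buffer, 30 min at 30 °C. Radiolabel incorporation counted by filter-binding scintillation; IC50 from 3-fold serial dilutions run in duplicate.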

For another assay, the target named is T2, B-Raf(V600E) kinase (Homo sapiens, UniProt P15056, V600E).
T2 construct: purchased Upstate Biotechnology
As to the kind of experiment: B-Raf(V600E) kinase assay ([33P] incorporation into MEK1(K97R)). Format: biochemical. The following applies: class symbols; 8 μM ATP; read-out: IC50 against B-Raf(V600E) kinase. On the procedure: (§1) Inhibition of kinase activity by a test compound disclosed herein was estimated by quantifying the amount of [^33P] incorporation of a substrate in the presence of the test compound. Standard assay conditions were 5 ng of recombinant B-Raf(V600E) kinase (Upstate Biotechnology) with 500 ng MEK1 (K97R) in assay buffer (8 μM ATP, 0.5 μCi [^33P] ATP (specific activity 3000 Ci/mmol, PerkinElmer), 50 mM Tris/HCl (pH7.5), and 1 mM EGTA, 1 mM Na3VO4, 1% 2-mercaptoethanol, 0.1% Brij 35, and 0.2 mg/ml BSA), and the test compound (diluted with 4% DMSO) or DMSO alone (as a control) in a final volume of 25 μL. Reactions were incubated at 30° C. for 30 min and stopped by adding 3% phosphoric acid, harvested onto a 96-well GF/B UniFilter (PerkinElmer) using a unifilter harvester (PerkinElmer), and counted with a TopCount microplate scintillation counter (PerkinElmer). The IC50 values of inhibitors were determined after carrying out assays at 3-fold serially diluted concentrations of each compound in duplication. The results were analyzed using linear regression software (GraphPad Prism 4; GraphPad Software Inc.).

A further assay concerns the target T3, C-Raf kinase (Homo sapiens, UniProt P04049).
T3 construct: purchased Upstate Biotechnology
As to the kind of experiment: C-Raf kinase assay ([33P] incorporation into MEK1(K97R)). Format: biochemical. The following applies: class symbols; 8 μM ATP; read-out: IC50 against C-Raf kinase. On the procedure: as §1, with “were 2” for “were 5”, “recombinant C-Raf” for “recombinant B-Raf(V600E)”

The target of a further assay is T4, VEGFR2 kinase (Homo sapiens, UniProt P35968).
T4 construct: VEGFR2 kinase domain alone, Millipore; purchased Millipore
In words: VEGFR2 radiometric kinase assay. Format: biochemical. As to conditions: given as bound; 100 μM ATP; read-out: Inhibition activity, IC50 VEGFR2. How it is done: (§2) The inhibitory activity against VEGFR2 or EGFR was determined by radiometric kinase assay. The experimental condition for VEGFR2 kinase assay was 6.25 ng of recombinant VEGFR2 kinase (VEGFR2 kinase domain alone, Millipore), 5 μg of substrate Poly(Glu-Tyr) (4:1, Sigma), kinase reaction buffer (20 mM MOPS pH 7.0, 1 mM EDTA, 5% glycerol, 0.01% Brij-35, 0.1% β-mercaptoethanol, 1 mg/mL BSA, 100 μM ATP, and 0.1 μCi per well [^33P] ATP (specific activity 3000 Ci/mmol, PerkinElmer)), and the test compound (diluted with 4% DMSO) or DMSO alone (as a control) in a final volume of 25 μL. Reactions were incubated at 30° C. for 30 min and stopped by adding 3% phosphoric acid, harvested onto a 96-well GF/B UniFilter (PerkinElmer) using a unifilter harvester (PerkinElmer), and counted with a TopCount microplate scintillation counter (PerkinElmer).
(§3) Results of inhibition activity against VEGFR2 and EGFR kinases by the selected compounds, which have IC50 values on B-Raf kinase <300 nM, are summarized in Table 6.

Another assay concerns the target T5, EGFR kinase (Homo sapiens, UniProt P00533).
T5 construct: EGFR kinase domain alone, Millipore; purchased Millipore
In words: EGFR radiometric kinase assay. It counts as biochemical. As to conditions: 100 μM ATP, read-out: Inhibition activity, IC50 EGFR. How it is done:
as §2
The experimental condition for EGFR kinase assay was 25 ng of EGFR kinase (EGFR kinase domain alone, Millipore), 3 μg of the substrate poly(Glu-Tyr), (Sigma), kinase reaction buffer (10 mM MOPS pH 7.0, 0.3 mM EDTA, 0.5% glycerol, 0.001% Brij-35, 10 mM MnCl2, 0.1 mg/ml BSA, 100 μM ATP, and 0.1 μCi per well [^33P]ATP (specific activity 3000 Ci/mmol, PerkinElmer)), and the test compound (diluted with 4% DMSO) or DMSO (as a control) in a final volume of 25 μL. Reactions were incubated at 30° C. for 30 min and stopped by adding 3% phosphoric acid, harvested onto a 96-well GF/B UniFilter (PerkinElmer) using a unifilter harvester (PerkinElmer), and counted with a TopCount microplate scintillation counter (PerkinElmer).
as §3

In assay [1] the test system is A375 melanoma cells and COLO205 colon cancer cells. In words: Cell proliferation assay (CellTiter-96). The following applies: Homo sapiens; A375 or COLO205, 72 hours treatment; read-out: Cytotoxicity IC50 for A375 or COLO205. Format: cell-based. On the procedure:
The anti-proliferative activities of compounds of formula (I) against B-Raf(V600E) mutant human cancer cell lines, A375 melanoma cells and COLO205 colon cancer cells, were measured using the CellTiter™-96 assay kit (Promega) following the manufacturer's instructions. In brief, the cells were maintained in DMEM containing 10% FCS and incubated at 37° C. in 5% CO2 atmosphere. Cells were plated at a density of 2,000 cells/well on a 96-well plate and incubated for 24 h. Then, these cells were treated with different concentrations of the test compounds and incubated for another 72 hours. At the end of the incubation, CellTiter™-96 Aqueous One Solution Reagent (Promega) was added and incubated for another 4.0 hours. Cell viability was determined by measuring absorbance at 490 nm using EMax® microplate reader (Molecular Devices). Data were processed and analyzed using GraphPad Prism.

In patent US9321762B2, “Quinazoline compounds, method for preparing the same and use thereof” (DEVELOPMENT CENTER FOR BIOTECHNOLOGY, priority 2013, dated 2016) one finds IC50 data, which are given here for eleven molecules.

Like-named read-outs stand apart in the source and are kept apart here. Some results are limits rather than exact numbers.

T1 sequence (P15056 whole entry): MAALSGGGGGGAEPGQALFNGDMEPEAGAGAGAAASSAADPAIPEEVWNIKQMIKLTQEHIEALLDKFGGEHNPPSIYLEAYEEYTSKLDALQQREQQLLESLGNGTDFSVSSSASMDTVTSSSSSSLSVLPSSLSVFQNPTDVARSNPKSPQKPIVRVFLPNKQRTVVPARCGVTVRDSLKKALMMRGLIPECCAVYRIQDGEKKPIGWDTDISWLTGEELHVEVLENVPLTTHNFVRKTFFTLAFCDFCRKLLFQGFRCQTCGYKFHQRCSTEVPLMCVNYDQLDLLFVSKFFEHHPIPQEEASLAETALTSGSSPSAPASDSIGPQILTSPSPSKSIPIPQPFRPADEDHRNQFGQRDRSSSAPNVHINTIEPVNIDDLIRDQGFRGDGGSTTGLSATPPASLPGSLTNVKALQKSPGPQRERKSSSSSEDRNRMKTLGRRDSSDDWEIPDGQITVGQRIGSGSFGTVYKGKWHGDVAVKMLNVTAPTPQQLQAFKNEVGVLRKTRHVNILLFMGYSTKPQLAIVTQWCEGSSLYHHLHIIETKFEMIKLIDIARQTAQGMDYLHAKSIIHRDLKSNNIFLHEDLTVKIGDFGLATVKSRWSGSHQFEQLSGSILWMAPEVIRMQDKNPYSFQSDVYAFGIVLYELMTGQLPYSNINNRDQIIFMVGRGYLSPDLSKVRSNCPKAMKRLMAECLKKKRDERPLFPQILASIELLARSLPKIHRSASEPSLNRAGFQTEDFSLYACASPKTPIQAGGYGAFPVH
T2 sequence (P15056 whole entry V600E): as the sequence (P15056 whole entry) above, with V600E counted along it
T3 sequence (P04049 whole entry): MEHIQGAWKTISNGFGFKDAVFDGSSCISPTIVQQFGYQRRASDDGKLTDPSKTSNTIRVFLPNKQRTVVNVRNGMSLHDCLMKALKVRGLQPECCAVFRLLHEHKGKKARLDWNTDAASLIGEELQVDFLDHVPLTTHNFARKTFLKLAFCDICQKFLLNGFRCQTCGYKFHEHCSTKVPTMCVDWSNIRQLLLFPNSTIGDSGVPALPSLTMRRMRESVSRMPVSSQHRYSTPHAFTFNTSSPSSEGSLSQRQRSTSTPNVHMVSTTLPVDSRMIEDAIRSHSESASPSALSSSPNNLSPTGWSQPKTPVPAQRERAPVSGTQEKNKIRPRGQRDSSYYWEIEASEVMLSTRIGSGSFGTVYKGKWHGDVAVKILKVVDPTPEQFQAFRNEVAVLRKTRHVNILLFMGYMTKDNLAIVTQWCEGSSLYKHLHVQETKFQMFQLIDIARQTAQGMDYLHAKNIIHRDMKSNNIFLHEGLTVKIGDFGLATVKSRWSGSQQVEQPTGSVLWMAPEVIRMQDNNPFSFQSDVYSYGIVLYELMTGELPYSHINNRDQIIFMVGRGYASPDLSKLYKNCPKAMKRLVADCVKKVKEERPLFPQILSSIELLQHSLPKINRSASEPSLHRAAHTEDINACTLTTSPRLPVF
T5 sequence (P00533 712-979 limits assumed): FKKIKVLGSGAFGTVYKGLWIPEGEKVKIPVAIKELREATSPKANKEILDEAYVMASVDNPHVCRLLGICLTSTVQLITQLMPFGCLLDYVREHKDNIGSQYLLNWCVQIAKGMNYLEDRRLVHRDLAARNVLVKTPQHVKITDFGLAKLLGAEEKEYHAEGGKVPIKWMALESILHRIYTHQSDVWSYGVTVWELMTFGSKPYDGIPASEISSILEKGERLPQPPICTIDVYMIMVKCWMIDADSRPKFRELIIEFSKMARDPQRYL
T4 sequence (P35968 834-1162 limits assumed): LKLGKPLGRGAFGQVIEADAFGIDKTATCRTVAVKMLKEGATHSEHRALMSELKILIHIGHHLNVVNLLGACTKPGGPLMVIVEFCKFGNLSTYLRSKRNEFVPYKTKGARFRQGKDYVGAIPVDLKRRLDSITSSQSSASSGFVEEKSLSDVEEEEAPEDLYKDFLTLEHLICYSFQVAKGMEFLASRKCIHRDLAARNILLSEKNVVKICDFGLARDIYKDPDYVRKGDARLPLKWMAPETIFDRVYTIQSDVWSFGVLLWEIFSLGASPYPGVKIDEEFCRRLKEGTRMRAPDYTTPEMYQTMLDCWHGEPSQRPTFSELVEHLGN

What is called IC50 is the concentration that inhibits the measured activity by half. As for `CCCS(=O)(=O)Nc1ccc(F)c(Nc2ncnc3cc(OCCOC)c(-c4cccnc4F)cc23)c1F` [compound 29, N-(2,4-difluoro-3-(6-(2-fluoropyridin-3-yl)-7-(2-methoxyethoxy)quinazolin-4-ylamino)phenyl)propane-1-sulfonamide], the IC50 on B-Raf kinase is < 300 nM; at B-Raf(V600E) kinase, < 300 nM; on C-Raf kinase it was < 300 nM; at VEGFR2 kinase, > 3 µM; on EGFR kinase (class symbols) it was 300 to 1000 nM; in assay [1], < 2000 nM.

Regarding `CCCS(=O)(=O)Nc1ccc(F)c(Nc2ncnc3ccc(-c4cccnc4Cl)cc23)c1F` [compound 57, N-(3-(6-(2-chloropyridin-3-yl)-quinazolin-4-ylamino)-2,4-difluorophenyl)propane-1-sulfonamide], the IC50 at B-Raf kinase was < 300 nM; at B-Raf(V600E) kinase, < 300 nM; on C-Raf kinase, < 300 nM; on VEGFR2 kinase it was > 3 µM; at EGFR kinase (given as bound), > 3000 nM; in assay [1], < 2000 nM.

For the molecule `CCCS(=O)(=O)Nc1ccc(F)c(Nc2ncnc3ccc(-c4ccnc(OCCN(C)C)c4)cc23)c1F` [compound 45, N-(3-(6-(2-(2-(dimethylamino)ethoxy)-pyridin-4-yl)quinazolin-4-ylamino)-2,4-difluorophenyl)propane-1-sulfonamide], the IC50 at B-Raf kinase was < 300 nM; at B-Raf(V600E) kinase it was < 300 nM; at C-Raf kinase, 1000 to 10000 nM; at VEGFR2 kinase it was > 3 µM; on EGFR kinase (given as bound), > 3000 nM; in assay [1], < 2000 nM.

Turning to `CCCS(=O)(=O)Nc1ccc(F)c(Nc2ncnc3cc(F)c(-c4ccncc4)cc23)c1F` [compound 15, N-(2,4-difluoro-3-(7-fluoro-6-(pyridin-4-yl)quinazolin-4-ylamino)phenyl)propane-1-sulfonamide], the IC50 on B-Raf kinase was < 300 nM; on B-Raf(V600E) kinase, < 300 nM; at C-Raf kinase, < 300 nM; at VEGFR2 kinase, > 3 µM; at EGFR kinase (class symbols), 1000 to 3000 nM; in assay [1], < 2000 nM.

For the molecule `CCCS(=O)(=O)Nc1ccc(F)c(Nc2ncnc3ccc(-c4ccc(=O)[nH]c4)cc23)c1F` [compound 32, N-(2,4-difluoro-3-(6-(6-oxo-1,6-dihydropyridin-3-yl)quinazolin-4-ylamino)phenyl)propane-1-sulfonamide], the IC50 was < 300 nM at B-Raf kinase; < 300 nM at B-Raf(V600E) kinase; 300 to 1000 nM on C-Raf kinase; > 3 µM on VEGFR2 kinase; > 3000 nM on EGFR kinase (given as bound); < 2000 nM in assay [1].

`CCCCS(=O)(=O)Nc1ccc(F)c(Nc2ncnc3ccc(-c4cccnc4F)cc23)c1F` [compound 18, N-(2,4-difluoro-3-(6-(2-fluoropyridin-3-yl)quinazolin-4-ylamino)phenyl)butane-1-sulfonamide]: the IC50 was < 300 nM at B-Raf kinase; < 300 nM at B-Raf(V600E) kinase; < 300 nM on C-Raf kinase; > 3 µM on VEGFR2 kinase; > 3000 nM at EGFR kinase (given as bound); < 2000 nM in assay [1].

Consider `CCCS(=O)(=O)Nc1ccc(F)c(Nc2ncnc3ccc(-c4ccc(OCCN(C)C)nc4)cc23)c1F` [compound 35, N-(3-(6-(6-(2-(dimethylamino)ethoxy)-pyridin-3-yl)quinazolin-4-ylamino)-2,4-difluorophenyl)propane-1-sulfonamide], for which the IC50 at B-Raf kinase was < 300 nM; at B-Raf(V600E) kinase, < 300 nM; on C-Raf kinase it was 1000 to 10000 nM; at VEGFR2 kinase, > 3 µM; on EGFR kinase (class symbols), 300 to 1000 nM; in assay [1] it was < 2000 nM.

With `CCCS(=O)(=O)Nc1ccc(F)c(Nc2ncnc3ccc(-c4ccnc(F)c4)cc23)c1F` [compound 24, N-(2,4-difluoro-3-(6-(2-fluoropyridin-4-yl)quinazolin-4-ylamino)phenyl)propane-1-sulfonamide], the IC50 at B-Raf kinase is < 300 nM; on B-Raf(V600E) kinase, < 300 nM; on C-Raf kinase, 300 to 1000 nM; on VEGFR2 kinase, > 3 µM; at EGFR kinase (class symbols), 1000 to 3000 nM; in assay [1], < 2000 nM.

In the case of `CCCS(=O)(=O)Nc1ccc(F)c(Nc2ncnc3ccc(-c4ccnc(OC)c4)cc23)c1F` [compound 31, N-(2,4-difluoro-3-(6-(2-methoxypyridin-4-yl)quinazolin-4-ylamino)phenyl)propane-1-sulfonamide], the IC50 on B-Raf kinase is < 300 nM; on B-Raf(V600E) kinase it was < 300 nM; on C-Raf kinase, < 300 nM; on VEGFR2 kinase, > 3 µM; on EGFR kinase (class symbols) it was 300 to 1000 nM; in assay [1], < 2000 nM.

`CCCS(=O)(=O)Nc1ccc(F)c(Nc2ncnc3ccc(-c4ccc(OC)nc4)cc23)c1F` [compound 27, N-(2,4-difluoro-3-(6-(6-methoxypyridin-3-yl)quinazolin-4-ylamino)phenyl)propane-1-sulfonamide]: the IC50 was 300 to 1000 nM on B-Raf kinase; < 300 nM at B-Raf(V600E) kinase; < 300 nM on C-Raf kinase; > 3 µM at VEGFR2 kinase; 1000 to 3000 nM at EGFR kinase (class symbols); < 2000 nM in assay [1].

Turning to `CCCS(=O)(=O)Nc1ccc(F)c(Nc2ncnc3ccc(-c4cncc(F)c4)cc23)c1F` [compound 46, N-(2,4-difluoro-3-(6-(5-fluoropyridin-3-yl)quinazolin-4-ylamino)phenyl)propane-1-sulfonamide], the IC50 at B-Raf kinase was < 300 nM; at B-Raf(V600E) kinase, < 300 nM; on C-Raf kinase, < 300 nM; on VEGFR2 kinase it was > 3 µM; on EGFR kinase (given as bound), > 3000 nM; in assay [1], < 2000 nM.
